{
  "source": "ChEMBL document CHEMBL3217615",
  "about": "“Novel 3,5-bis(arylidiene)-4-piperidone based monocarbonyl analogs of curcumin: anticancer activity evaluation and mode of action study” (2014)",
  "format_in_all_cases": "functional",
  "key": {"[1]": {"assay": "Growth inhibition of human Hs 578T cells after 48 hrs by sulforhodamine B assay"}, "[2]": {"assay": "Growth inhibition of human OVCAR3 cells assessed as cell growth at 10^-6 M after 48 hrs by sulforhodamine B assay", "conditions": "OVCAR-3, 48 h, read-out: Activity"}, "SK-MEL-5": {"system": "SK-MEL-5", "assay": "Growth inhibition of human SK-MEL-5 cells assessed as cell growth at 10^-6 M after 48 hrs by sulforhodamine B assay", "conditions": "SK-MEL-5, 48 h, read-out: Activity"}, "Malme-3M": {"system": "Malme-3M", "assay": "Growth inhibition of human MALME-3M cells assessed as cell growth at 10^-6 M after 48 hrs by sulforhodamine B assay", "conditions": "read-out: Activity"}, "[3]": {"assay": "Growth inhibition of human HCT15 cells assessed as cell growth at 10^-6 M after 48 hrs by sulforhodamine B assay", "conditions": "HCT-15, 48 h, read-out: Activity"}, "NCI-H322M": {"system": "NCI-H322M", "assay": "Growth inhibition of human NCI-H322M cells assessed as cell growth at 10^-6 M after 48 hrs by sulforhodamine B assay", "conditions": "read-out: Activity"}, "CCRF-CEM": {"system": "CCRF-CEM", "assay": "Growth inhibition of human CCRF-CEM cells assessed as cell growth at 10^-6 M after 48 hrs by sulforhodamine B assay", "conditions": "read-out: Activity"}, "[4]": {"assay": "Growth inhibition of human Hs 578T cells assessed as cell growth at 10^-7 M after 48 hrs by sulforhodamine B assay", "conditions": "read-out: Activity"}, "TK-10 [5]": {"system": "TK-10", "assay": "Growth inhibition of human TK10 cells assessed as cell growth at 10^-7 M after 48 hrs by sulforhodamine B assay", "conditions": "TK-10, 48 h, read-out: Activity"}, "[6]": {"assay": "Growth inhibition of human Hs 578T cells assessed as cell growth at 10^-6 M after 48 hrs by sulforhodamine B assay", "conditions": "read-out: Activity"}, "PC-3": {"system": "PC-3", "assay": "Growth inhibition of human PC3 cells assessed as cell growth at 10^-6 M after 48 hrs by sulforhodamine B assay", "conditions": "PC-3, 48 h, read-out: Activity"}, "TK-10 [7]": {"system": "TK-10", "assay": "Growth inhibition of human TK10 cells assessed as cell growth at 10^-6 M after 48 hrs by sulforhodamine B assay", "conditions": "TK-10, 48 h, read-out: Activity"}, "ACHN": {"system": "ACHN", "assay": "Growth inhibition of human ACHN cells assessed as cell growth at 10^-6 M after 48 hrs by sulforhodamine B assay", "conditions": "read-out: Activity"}, "SK-OV-3": {"system": "SK-OV-3", "assay": "Growth inhibition of human SKOV3 cells assessed as cell growth at 10^-6 M after 48 hrs by sulforhodamine B assay", "conditions": "SK-OV-3, 48 h, read-out: Activity"}, "IGROV-1": {"system": "IGROV-1", "assay": "Growth inhibition of human IGROV1 cells assessed as cell growth at 10^-4 M after 48 hrs by sulforhodamine B assay", "conditions": "IGROV-1, 48 h, read-out: Activity"}, "COLO 205": {"system": "COLO 205", "assay": "Growth inhibition of human COLO205 cells assessed as cell growth at 10^-4 M after 48 hrs by sulforhodamine B assay", "conditions": "COLO 205, 48 h, read-out: Activity"}, "HOP-62": {"system": "HOP-62", "assay": "Growth inhibition of human HOP62 cells assessed as cell growth at 10^-4 M after 48 hrs by sulforhodamine B assay", "conditions": "HOP-62, 48 h, read-out: Activity"}, "[8]": {"assay": "Growth inhibition of human LOXIMVI cells assessed as cell growth at 10^-8 M after 48 hrs by sulforhodamine B assay", "conditions": "LOX IMVI; for growth at 0.01 µM: read-out: Activity; for TGI: read-out: pTGI (converted)"}, "[9]": {"assay": "Growth inhibition of human HCT15 cells assessed as cell growth at 10^-8 M after 48 hrs by sulforhodamine B assay", "conditions": "HCT-15, 48 h; for growth at 0.01 µM: read-out: Activity; for TGI: read-out: pTGI (converted)"}, "TK-10 [10]": {"system": "TK-10", "assay": "Growth inhibition of human TK10 cells after 48 hrs by sulforhodamine B assay", "conditions": "TK-10, 48 h"}, "MDA-MB-435": {"system": "MDA-MB-435", "assay": "Growth inhibition of human MDA-MB-435 cells after 48 hrs by sulforhodamine B assay", "conditions": "MDA-MB-435, 48 h; for CC50: read-out: LC50 (the source's name)"}, "[11]": {"assay": "Growth inhibition of human Hs 578T cells assessed as cell growth at 10^-4 M after 48 hrs by sulforhodamine B assay", "conditions": "read-out: Activity"}, "TK-10 [12]": {"system": "TK-10", "assay": "Growth inhibition of human TK10 cells assessed as cell growth at 10^-4 M after 48 hrs by sulforhodamine B assay", "conditions": "TK-10, 48 h, read-out: Activity"}, "[13]": {"assay": "Growth inhibition of human Hs 578T cells assessed as cell growth at 10^-8 M after 48 hrs by sulforhodamine B assay"}, "TK-10 [14]": {"system": "TK-10", "assay": "Growth inhibition of human TK10 cells assessed as cell growth at 10^-8 M after 48 hrs by sulforhodamine B assay", "conditions": "TK-10, 48 h"}, "KM12": {"system": "KM12", "assay": "Growth inhibition of human KM12 cells assessed as cell growth at 10^-6 M after 48 hrs by sulforhodamine B assay", "conditions": "KM12, 48 h, read-out: Activity"}, "[15]": {"conditions": "read-out: LC50 (the source's name)"}},
  "data": [
    {"molecule": "Cc1ccc(S(=O)(=O)N2C/C(=C\\c3cc(F)cc(F)c3)C(=O)/C(=C/c3cc(F)cc(F)c3)C2)cc1", "values": [
      {"measurement": "GI50", "setting": "[1]", "value": 399, "unit": "nM"},
      {"measurement": "TGI", "setting": "[1]", "value": 18600, "unit": "nM"},
      {"measurement": "CC50", "setting": "[1]; [15]", "value": "> 100000", "unit": "nM"},
      {"measurement": "growth at 1 µM", "setting": "[2]", "value": 16, "unit": "%"},
      {"measurement": "growth at 1 µM", "setting": "SK-MEL-5", "value": 3, "unit": "%"},
      {"measurement": "growth at 1 µM", "setting": "Malme-3M", "value": -15, "unit": "%"},
      {"measurement": "growth at 1 µM", "setting": "[3]", "value": 5, "unit": "%"},
      {"measurement": "growth at 1 µM", "setting": "NCI-H322M", "value": 101, "unit": "%"},
      {"measurement": "growth at 1 µM", "setting": "CCRF-CEM", "value": -1, "unit": "%"},
      {"measurement": "growth at 0.1 µM", "setting": "[4]", "value": 93, "unit": "%"},
      {"measurement": "growth at 0.1 µM", "setting": "TK-10 [5]", "value": 106, "unit": "%"},
      {"measurement": "growth at 1 µM", "setting": "[6]", "value": 22, "unit": "%"},
      {"measurement": "growth at 1 µM", "setting": "PC-3", "value": -9, "unit": "%"},
      {"measurement": "growth at 1 µM", "setting": "TK-10 [7]", "value": 52, "unit": "%"},
      {"measurement": "growth at 1 µM", "setting": "ACHN", "value": -26, "unit": "%"},
      {"measurement": "growth at 1 µM", "setting": "SK-OV-3", "value": 77, "unit": "%"},
      {"measurement": "growth at 100 µM", "setting": "IGROV-1", "value": -80, "unit": "%"},
      {"measurement": "growth at 100 µM", "setting": "COLO 205", "value": -95, "unit": "%"},
      {"measurement": "growth at 100 µM", "setting": "HOP-62", "value": -93, "unit": "%"},
      {"measurement": "GI50", "setting": "[8]", "value": 174, "unit": "nM"},
      {"measurement": "growth at 0.01 µM", "setting": "[8]", "value": 97, "unit": "%"},
      {"measurement": "CC50", "setting": "[8]; read-out: pLC50 (the source's name) (converted)", "value": 661, "unit": "nM"},
      {"measurement": "TGI", "setting": "[8]", "value": 339, "unit": "nM"},
      {"measurement": "GI50", "setting": "[9]", "value": 251, "unit": "nM"},
      {"measurement": "LC50", "setting": "[9]", "value": 30900, "unit": "nM"},
      {"measurement": "growth at 0.01 µM", "setting": "[9]", "value": 91, "unit": "%"},
      {"measurement": "TGI", "setting": "[9]", "value": 1290, "unit": "nM"},
      {"measurement": "GI50", "setting": "TK-10 [10]", "value": 1030, "unit": "nM"},
      {"measurement": "TGI", "setting": "TK-10 [10]", "value": 2960, "unit": "nM"},
      {"measurement": "CC50", "setting": "TK-10 [10]; [15]", "value": 8460, "unit": "nM"},
      {"measurement": "GI50", "setting": "MDA-MB-435", "value": 241, "unit": "nM"},
      {"measurement": "TGI", "setting": "MDA-MB-435", "value": 685, "unit": "nM"},
      {"measurement": "CC50", "setting": "MDA-MB-435", "value": 3630, "unit": "nM"},
      {"measurement": "growth at 100 µM", "setting": "[11]", "value": -23, "unit": "%"},
      {"measurement": "growth at 100 µM", "setting": "TK-10 [12]", "value": -85, "unit": "%"},
      {"measurement": "GI50", "setting": "[13]", "value": 398, "unit": "nM"},
      {"measurement": "LC50", "setting": "[13]", "value": "> 100000", "unit": "nM"},
      {"measurement": "growth at 0.01 µM", "setting": "[13]; read-out: Activity", "value": 92, "unit": "%"},
      {"measurement": "TGI", "setting": "[13]; read-out: pTGI (converted)", "value": 18600, "unit": "nM"},
      {"measurement": "GI50", "setting": "TK-10 [14]", "value": 1020, "unit": "nM"},
      {"measurement": "LC50 (50% lethal concentration)", "setting": "TK-10 [14]", "value": 8510, "unit": "nM"},
      {"measurement": "growth at 0.01 µM", "setting": "TK-10 [14]; read-out: Activity", "value": 103, "unit": "%"},
      {"measurement": "TGI", "setting": "TK-10 [14]; read-out: pTGI (converted)", "value": 2950, "unit": "nM"}
    ]},
    {"molecule": "O=C1/C(=C/c2ccc(Cl)cc2Cl)CN(S(=O)(=O)c2ccccc2)C/C1=C\\c1ccc(Cl)cc1Cl", "values": [
      {"measurement": "growth at 1 µM", "setting": "[2]", "value": -10, "unit": "%"},
      {"measurement": "growth at 1 µM", "setting": "SK-MEL-5", "value": 94, "unit": "%"},
      {"measurement": "growth at 1 µM", "setting": "Malme-3M", "value": 123, "unit": "%"},
      {"measurement": "growth at 1 µM", "setting": "KM12", "value": -30, "unit": "%"},
      {"measurement": "growth at 1 µM", "setting": "[3]", "value": -12, "unit": "%"},
      {"measurement": "growth at 1 µM", "setting": "NCI-H322M", "value": 35, "unit": "%"},
      {"measurement": "growth at 1 µM", "setting": "ACHN", "value": 47, "unit": "%"},
      {"measurement": "growth at 1 µM", "setting": "SK-OV-3", "value": 108, "unit": "%"},
      {"measurement": "growth at 100 µM", "setting": "IGROV-1", "value": -47, "unit": "%"},
      {"measurement": "growth at 100 µM", "setting": "COLO 205", "value": -25, "unit": "%"},
      {"measurement": "GI50", "setting": "[8]", "value": 204, "unit": "nM"},
      {"measurement": "growth at 0.01 µM", "setting": "[8]", "value": 95, "unit": "%"},
      {"measurement": "TGI", "setting": "[8]", "value": 513, "unit": "nM"},
      {"measurement": "GI50", "setting": "[9]", "value": 245, "unit": "nM"},
      {"measurement": "LC50", "setting": "[9]", "value": "> 100000", "unit": "nM"},
      {"measurement": "growth at 0.01 µM", "setting": "[9]", "value": 95, "unit": "%"},
      {"measurement": "TGI", "setting": "[9]", "value": 759, "unit": "nM"},
      {"measurement": "GI50", "setting": "MDA-MB-435", "value": 985, "unit": "nM"},
      {"measurement": "TGI", "setting": "MDA-MB-435", "value": 3210, "unit": "nM"},
      {"measurement": "CC50", "setting": "MDA-MB-435", "value": "> 100000", "unit": "nM"}
    ]}
  ]
}
